Measurements taken from the NIST ThermoML archive (doi:10.1016/j.fluid.2013.09.030).

Legend:
[1] = xn = mol fraction of the nth substance listed; conditions: 298.15 K, 101 kPa, Liquid, Vibrating tube method
[2] = refractive index (Na D-line) (dimensionless); xn = mol fraction of the nth substance listed; conditions: 298.15 K, 101 kPa, Liquid, Standard Abbe refractometry
[3] = Liquid; for mass density: 298.15 K, 101.33 kPa, Vibrating tube method; for vapor or sublimation pressure: Ebulliometric method (Recirculating still)
[4] = refractive index (Na D-line) (dimensionless); conditions: 298.15 K; 101.33 kPa; Liquid; Standard Abbe refractometry
[5] = Boiling temperature at pressure P; conditions: Liquid, Ebulliometric method (Recirculating still)

COC(=O)Oc1ccccc1 [methyl phenyl carbonate] + CO
Conditions	mass density, [1] [kg/m3]	refractive index, [2]
x1 = 0.0501	842.07	1.3647
x1 = 0.1001	886.48	1.3885
x1 = 0.2002	953.27	1.4283
x1 = 0.3002	1000.92	1.45
x1 = 0.4003	1036.71	1.467
x1 = 0.5	1064.49	1.4748
x1 = 0.6013	1087.16	1.4801
x1 = 0.7008	1105.28	1.4848
x1 = 0.8003	1120.25	1.4877
x1 = 0.9015	1133.12	1.4915
x1 = 0.9471	1138.14	1.4929

COC(=O)Oc1ccccc1 [methyl phenyl carbonate] + COC(=O)OC
Conditions	mass density, [1] [kg/m3]	refractive index, [2]
x1 = 0.0499	1069.88	1.3764
x1 = 0.1	1076.1	1.3863
x1 = 0.2001	1087.37	1.4038
x1 = 0.2999	1097.32	1.419
x1 = 0.4	1106.17	1.4336
x1 = 0.5002	1114.08	1.4463
x1 = 0.6	1121.17	1.4575
x1 = 0.7007	1127.6	1.468
x1 = 0.8003	1133.42	1.4774
x1 = 0.8991	1138.71	1.4853
x1 = 0.9493	1141.22	1.4901

COC(=O)OC [dimethyl carbonate]
Conditions	mass density [kg/m3]	refractive index
[3]	1063.26	–
[4]	–	1.3666

Conditions	vapor or sublimation pressure [kPa]
[3], 363.25 K	101.3

CO [methanol]
Conditions	mass density [kg/m3]	refractive index
[3]	786.69	–
[4]	–	1.3267

Conditions	vapor or sublimation pressure [kPa]
[3], 338.12 K	101.3

COC(=O)Oc1ccccc1 [methyl phenyl carbonate]
Conditions	mass density [kg/m3]	refractive index
[3]	1143.63	–
[4]	–	1.4948

[5]
Conditions	Boiling temperature at pressure P [°C]
3 kPa	105.66
5 kPa	118.02
10 kPa	136.72
15 kPa	148.41
20 kPa	157.08
25 kPa	164.10
30 kPa	170.01
35 kPa	174.97
40 kPa	179.58
45 kPa	183.76
50 kPa	187.52
55 kPa	190.94
60 kPa	194.06
65 kPa	197.11
70 kPa	199.87
75 kPa	202.31
80 kPa	204.76
85 kPa	207.20
90 kPa	209.54
95 kPa	211.70
100 kPa	213.56
101.3 kPa	214.33
102.1 kPa	214.51
